Laboratory results as given in paper PMC7015555, “Transthyretin-Binding Activity of Complex Mixtures Representing the Composition of Thyroid-Hormone Disrupting Contaminants in House Dust and Human Serum” (Environmental Health Perspectives, 2020).
Read-outs that look alike come from different tables or passages of the source.

Key:
[1] = molecular target: TTR (Homo sapiens, UniProt P02766); assay: FITC-T4 TTR competitive binding assay; details: for REP (relative potency compared to T4): IC20 of T4 / IC20 of compound (Equation 14); for T4EQ concentration (nmol/g dust): reported concentration of the compound in SRM2585 dust x REP; for maximum competitive potency at high test concentrations: Figure 1C; for inhibition of FITC-T4-TTR-binding: present study (Figure 1C)
[2] = system: TTR; details: cited from earlier work; for IC50: read-out: IC50 (M), Radioactive Ligand Binding Assay data from the literature; for REP, Radioactive Ligand Binding Assay data from the literature: relative effect potency; for T4-TTR binding inhibition in the RLBA: at 10 µM (highest concentration)
[3] = 20% inhibition of FITC-T4 binding to TTR, 30 nM TTR, 110 nM FITC-T4, 2 h at 4°C, pH 8.0
[4] = individual compounds, 30 nM TTR, 110 nM FITC-T4, 2 h at 4°C, pH 8.0, — = 50% inhibition level not reached (footnote g), read-out: IC50
[5] = inhibitor-TTR dissociation constant converted from IC20 (Equation 4), 4°C, read-out: Ki

Compound	IC20 [1, 3] [nM]	REP (relative potency compared to T4) [1]	IC50 [1, 4] [nM]	T4EQ concentration (nmol/g dust) [1] [nmol/g dust]	IC50 ([2]; ref Weiss et al. 2015) [M]	REP, Radioactive Ligand Binding Assay data from the literature ([2]; ref Weiss et al. 2015)	Ki [1] [nM]	IC20 ([1]; pH 8) [nM]	IC50 ([1]; read-out: IC50) [nM]	Ki [1, 5] [nM]	other results
O=C(O)C(F)(F)C(F)(F)C(F)(F)C(F)(F)C(F)(F)C(F)(F)C(F)(F)C(F)(F)C(F)(F)F [PFDA, perfluorodecanoic acid]	1700	0.012	5400	0.001	8.95e-06	0.007	–	–	–	–	Ki ([1]; read-out: Ki): 3700 nM
O=C(O)C(F)(F)C(F)(F)C(F)(F)C(F)(F)C(F)(F)C(F)(F)C(F)(F)C(F)(F)C(F)(F)C(F)(F)F [PFUnDA, perfluoroundecanoic acid]	1000	0.021	3100	0.002	2.16e-05	0.003	–	–	–	–	Ki ([1]; read-out: Ki): 2200 nM
Brc1ccc(Oc2ccc(Br)cc2Br)c(Br)c1 [BDE-47, 2,2ʹ,4,4ʹ-tetrabromodiphenyl ether]	–	0.10	–	0.103	3.6e-05	0.0025	440	210	1300	–	–
CCCOC(=O)c1ccc(O)cc1 [Propylparaben, propyl 4-hydroxybenzoate]	–	0.0039	–	–	–	–	–	5500	19000	12000	IC50 ([2]; ref Zhang et al. 2015): 1.9e-05 M; REP, Radioactive Ligand Binding Assay data from the literature ([2]; ref Zhang et al. 2015): 0.0038
O=S(=O)(O)C(F)(F)C(F)(F)C(F)(F)C(F)(F)C(F)(F)C(F)(F)F [PFHxS, perfluorohexane sulfonic acid]	–	0.16	–	0.561	7.17e-07	0.085	280	140	460	–	–
O=C(O)C(F)(F)C(F)(F)C(F)(F)C(F)(F)C(F)(F)C(F)(F)C(F)(F)F [PFOA, perfluorooctanoic acid]	–	0.043	–	0.060	9.49e-07	0.064	1100	490	1100	–	–
Brc1ccc(Oc2cc(Br)c(Br)cc2Br)c(Br)c1 [BDE-99, 2,2ʹ,4,4ʹ,5-pentabromodiphenyl ether]	–	0.29	–	0.458	–	–	150	73	–	–	maximum competitive potency at high test concentrations [1]: leveled off before reaching complete inhibition; inhibition of FITC-T4-TTR-binding [1]: > 20%; T4-TTR binding inhibition in the RLBA ([2]; ref Hamers et al. 2006): <20% inhibition at 10 µM (Hamers et al. 2006)
O=C(O)C(F)(F)C(F)(F)C(F)(F)C(F)(F)C(F)(F)F [PFHxA, perfluorohexanoic acid]	1600	0.014	5600	0.011	8.22e-06	–	–	–	–	–	Ki ([1]; read-out: Ki): 3400 nM
Clc1ccc(-c2cc(Cl)c(Cl)cc2Cl)cc1Cl [CB-118, 2,3ʹ,4,4ʹ,5-pentachlorobiphenyl]	–	0.14	–	0.011	–	–	–	160	560	320	inhibition of FITC-T4-TTR-binding [1]: > 20%; T4-TTR binding inhibition in the RLBA ([2]; ref Hamers et al. 2011): <20% inhibition at 10 µM (Hamers et al. 2011)
O=S(=O)(O)C(F)(F)C(F)(F)C(F)(F)C(F)(F)C(F)(F)C(F)(F)C(F)(F)C(F)(F)F [PFOS, perfluorooctane sulfonic acid]	82	0.26	250	1.201	9.4e-07	0.065	–	–	–	–	Ki ([1]; read-out: Ki): 160 nM
O=C(O)C(F)(F)C(F)(F)C(F)(F)C(F)(F)C(F)(F)C(F)(F)C(F)(F)C(F)(F)F [PFNA, perfluorononanoic acid]	360	0.059	1100	0.013	2.74e-06	0.022	–	–	–	–	Ki ([1]; read-out: Ki): 770 nM
NS(=O)(=O)C(F)(F)C(F)(F)C(F)(F)C(F)(F)C(F)(F)C(F)(F)C(F)(F)C(F)(F)F [FOSA, perfluorooctane sulfonamide]	–	0.11	–	0.002	6.12e-06	0.01	–	190	730	400	–
O=C(O)C(F)(F)C(F)(F)C(F)(F)C(F)(F)C(F)(F)C(F)(F)F [PFHpA, perfluoroheptanoic acid]	–	0.071	–	0.048	1.57e-06	0.039	640	300	1200	–	–
CC(C)(c1cc(Br)c(O)c(Br)c1)c1cc(Br)c(O)c(Br)c1 [TBBPA, tetrabromo-bisphenol-A]	14	1.5	34	0.586	3.1e-08	1.6	–	–	–	–	Ki ([1]; read-out: Ki): 17 nM
Clc1cc(Cl)c(-c2cc(Cl)c(Cl)cc2Cl)cc1Cl [CB-153, 2,2ʹ,4,4ʹ,5,5ʹ-hexachlorobiphenyl]	–	0.27	–	0.030	> 1.5e-05	<0.0037	150	77	180	–	maximum competitive potency at high test concentrations [1]: leveled off before reaching complete inhibition; REP, Radioactive Ligand Binding Assay data from the literature ([2]; ref Hamers et al. (2011)): <0.0037; pIC50 in the RLBA ([2]; –log(IC50), ref Excel Table S1): < 4.8
O=S(=O)(O)C(F)(F)C(F)(F)C(F)(F)C(F)(F)F [PFBS, perfluorobutane sulfonic acid]	2300	0.0091	9700	0.002	1.95e-05	0.003	–	–	–	5100	–
Oc1c(Br)cc(Br)cc1Br [2,4,6-TBP, 2,4,6-tribromophenol]	–	2.4	–	–	4.8e-09	10	5.5	8.9	29	–	–
Oc1c(Cl)cc(-c2ccc(Cl)c(Cl)c2)c(Cl)c1Cl [4-OH-CB-107, 4-OH-2,3,3ʹ,4ʹ,5-pentachlorobiphenyl]	34	0.63	68	–	2.26e-08	3.5	–	–	–	59	–
Oc1cc(Br)cc(Br)c1Oc1ccc(Br)cc1Br [6-OH-BDE-47, 6-OH-2,2ʹ,4,4ʹ-tetrabromodiphenyl ether]	31	0.68	98	–	1.5e-07	0.39	–	–	–	54	–
Oc1c(Cl)c(Cl)c(Cl)c(Cl)c1Cl [Pentachlorophenol, pentachlorophenol]	–	1.2	–	–	2.3e-07	1.74	24	17	–	–	IC50 [1]: 60 nM
Oc1cc(Oc2ccc(Br)cc2Br)c(Br)cc1Br [5-OH-BDE-47, 5-OH-2,2ʹ,4,4ʹ-tetrabromodiphenyl ether]	14	1.5	27	–	2.5e-08	3	–	–	–	16	–
CCCCCCCCCc1ccc(O)cc1 [4-Nonylphenol, 4-nonylphenol]	–	0.012	–	0.946	1e-05	0.008	3900	1800	16000	–	–
Oc1cc(Br)cc(Br)c1Oc1cc(Br)c(Br)cc1Br [6ʹ-OH-BDE-99, 6ʹ-OH-2,2ʹ,4,4ʹ,5-pentabromodiphenyl ether]	8.4	2.5	20	–	–	–	–	–	–	4.5	REP, Radioactive Ligand Binding Assay data from the literature ([2]; ref Marchesini et al. 2008): 0.2
Oc1c(Cl)c(Cl)c(-c2cc(Cl)c(Cl)cc2Cl)c(Cl)c1Cl [4-OH-CB-187, 4-OH-2,2ʹ,3,4ʹ,5,5ʹ,6-heptachlorobiphenyl]	8.2	2.6	17	–	1.98e-08	4	–	–	–	4	–
